Assay results taken from patent US12612387B2, “RAS inhibitors and methods of using the same” (Jazz Pharmaceuticals Ireland Limited, priority 2020, dated 2026).

Assays:
[1] = biological target: T1, K-RAS G12C (Homo sapiens, UniProt P01116, G12C); test: Compound depletion assay, K-RAS G12C; assay type: binding; settings: G12C protein 20 μM, compound 8 μM, 25° C.
T1 construct: His tag; purchased Stratech
Protocol: (§1) Compound Depletion Assay Method
(§2) Lyophilized human K-RAS (12 Cys) protein (His tag) and human K-RAS (12 Asp) protein (His tag) were purchased from Stratech and reconstituted at 30 μM in water. The protein concentration of K-RAS G12C and K-RAS G12D was adjusted to 20 μM in K-RAS Assay Buffer (20 mM HEPES pH 7.5, 150 mM NaCl, 1 mM MgCl2). A 49 μl aliquot of protein solution was transferred to 1.5 ml eppendorfs and incubated at room temperature for 10 minutes. A 1 μl aliquot of compound solution in DMSO was added to the protein solutions in the 1.5 ml eppendorfs to initiate the reaction, with a final assay compound concentration of 8 μM. Reactions were agitated at 25° C., 700 rpm. At each time point (0, 30, 180, 360, 1440 minutes), 10 μl of the reaction mixture was removed, added to 30 μl quench solution (0.3% formic acid, 75 nM propranolol in acetonitrile) to stop the reaction and stored at 4° C. Once all reactions were quenched, the samples were centrifuged at 16000 g for 10 minutes to pellet the protein and salts. A 10 μl aliquot of supernatant containing compound was diluted in 50:50 acetonitrile:H2O in a 96 well plate. The plates were heat sealed and the samples analysed by LC-MS/MS to determine the concentration of compound remaining in the samples. To determine the reaction progress, the compound signal was normalized to the internal standard signal (propranolol). The decrease in free compound concentration is shown as a percentage over time, with the […] at time zero fixed at one hundred percent. Compound is assumed to be completely depleted when no longer detectable with a double blank sample as reference.

[2] = biological target: T2, K-RAS G12D (Homo sapiens, UniProt P01116, G12D); test: Compound depletion assay, K-RAS G12D; assay type: binding; settings: G12D protein 20 μM, compound 8 μM, 25° C.
T2 construct: His tag; purchased Stratech
Protocol: as §1, §2

T2 sequence (P01116 1-188 isoform P01116-2 G12D): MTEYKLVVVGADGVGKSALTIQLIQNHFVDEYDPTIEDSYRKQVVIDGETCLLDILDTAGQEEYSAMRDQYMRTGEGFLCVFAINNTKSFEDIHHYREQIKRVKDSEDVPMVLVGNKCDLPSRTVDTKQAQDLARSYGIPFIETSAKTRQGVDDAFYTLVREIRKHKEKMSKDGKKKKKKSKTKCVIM
T1 sequence (P01116 1-188 isoform P01116-2 G12C): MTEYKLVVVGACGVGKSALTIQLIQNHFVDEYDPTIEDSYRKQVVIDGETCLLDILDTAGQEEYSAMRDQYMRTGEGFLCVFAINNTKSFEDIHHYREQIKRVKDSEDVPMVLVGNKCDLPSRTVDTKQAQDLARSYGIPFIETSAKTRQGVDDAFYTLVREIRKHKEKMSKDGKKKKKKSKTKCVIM

| SMILES | 3 hr Category (compound remaining at timepoint) [1] | 24 hr Category (compound remaining at timepoint) [1] | 3 hr Category (compound remaining at timepoint) [2] | 24 hr Category (compound remaining at timepoint) [2] | 6 hr Category (compound remaining at timepoint) [1] | 30 min Category (compound remaining at timepoint) [2] | 6 hr Category (compound remaining at timepoint) [2] | 30 min Category (compound remaining at timepoint) [1] |
| --- | --- | --- | --- | --- | --- | --- | --- | --- |
| C=CC(=O)N1CCN(c2cc(C(=O)Nc3cc(O)cc4ccccc34)nc(NCC3CCCN(C)C3)n2)C[C@@H]1CC#N (stereo partly drawn) [Example 43, 6-[(3S)-3-(cyanomethyl)-4-prop-2-enoyl-piperazin-1-yl]-N-(3-hydroxy-1-naphthyl)-2-[(1-methyl-3-piperidyl)methylamino]pyrimidine-4-carboxamide] | C (≤30% compound remaining at timepoint) | – | A (≥70% compound remaining at timepoint) | – | C (≤30% compound remaining at timepoint) | A (≥70% compound remaining at timepoint) | A (≥70% compound remaining at timepoint) | B (30%-70% compound remaining at timepoint) |
| C=CC(=O)N1CCN(c2cc(C(=O)Nc3cccc4ccccc34)nc(OC[C@@H]3CCCN3C)n2)C[C@@H]1CC#N [Example 02, 6-[(3S)-3-(cyanomethyl)-4-prop-2-enoyl-piperazin-1-yl]-2-[[(2S)-1-methylpyrrolidin-2-yl]methoxy]-N-(1-naphthyl)pyrimidine-4-carboxamide] | B (30%-70% compound remaining at timepoint) | B (30%-70% compound remaining at timepoint) | A (≥70% compound remaining at timepoint) | A (≥70% compound remaining at timepoint) | – | – | – | – |
| C=CC(=O)N1CCN(c2cc(C(=O)Nc3cc(O)cc4ccccc34)nc(OCc3ccnn3C)n2)C[C@@H]1CC#N [Example 35, 6-[(3S)-3-(cyanomethyl)-4-prop-2-enoyl-piperazin-1-yl]-N-(3-hydroxy-1-naphthyl)-2-[(2-methylpyrazol-3-yl)methoxy]pyrimidine-4-carboxamide] | C (≤30% compound remaining at timepoint) | – | A (≥70% compound remaining at timepoint) | – | C (≤30% compound remaining at timepoint) | A (≥70% compound remaining at timepoint) | A (≥70% compound remaining at timepoint) | B (30%-70% compound remaining at timepoint) |
| C=CC(=O)N1CCN(c2cc(C(=O)Nc3cc(O)cc4ccccc34)nc(NCC3CCCCN3C)n2)C[C@@H]1CC#N (stereo partly drawn) [Example 49, 6-[(3S)-3-(cyanomethyl)-4-prop-2-enoyl-piperazin-1-yl]-N-(3-hydroxy-1-naphthyl)-2-[(1-methyl-2-piperidyl)methylamino]pyrimidine-4-carboxamide] | C (≤30% compound remaining at timepoint) | – | A (≥70% compound remaining at timepoint) | – | C (≤30% compound remaining at timepoint) | A (≥70% compound remaining at timepoint) | A (≥70% compound remaining at timepoint) | B (30%-70% compound remaining at timepoint) |
| C=CC(=O)N1CCN(c2cc(C(=O)Nc3cccc4ccccc34)nc(-c3cccnc3)n2)CC1 [Example 09, N-(1-naphthyl)-6-(4-prop-2-enoylpiperazin-1-yl)-2-(3-pyridyl)pyrimidine-4-carboxamide] | A (≥70% compound remaining at timepoint) | B (30%-70% compound remaining at timepoint) | A (≥70% compound remaining at timepoint) | A (≥70% compound remaining at timepoint) | A (≥70% compound remaining at timepoint) | A (≥70% compound remaining at timepoint) | A (≥70% compound remaining at timepoint) | – |
| C=CC(=O)N1CCN(c2cc(C(=O)Nc3cc(O)cc4ccccc34)nc(-c3cccc4c3cnn4C)n2)C[C@@H]1CC#N [Example 38, 6-[(3S)-3-(cyanomethyl)-4-prop-2-enoyl-piperazin-1-yl]-N-(3-hydroxy-1-naphthyl)-2-(1-methylindazol-4-yl)pyrimidine-4-carboxamide] | A (≥70% compound remaining at timepoint) | – | A (≥70% compound remaining at timepoint) | – | A (≥70% compound remaining at timepoint) | A (≥70% compound remaining at timepoint) | A (≥70% compound remaining at timepoint) | A (≥70% compound remaining at timepoint) |

Now from value to compound, other results behind:

| 3 hr Category (compound remaining at timepoint) [1] | 24 hr Category (compound remaining at timepoint) [1] | 3 hr Category (compound remaining at timepoint) [2] | 24 hr Category (compound remaining at timepoint) [2] | 6 hr Category (compound remaining at timepoint) [1] | 30 min Category (compound remaining at timepoint) [2] | 6 hr Category (compound remaining at timepoint) [2] | SMILES | 30 min Category (compound remaining at timepoint) [1] |
| --- | --- | --- | --- | --- | --- | --- | --- | --- |
| A (≥70% compound remaining at timepoint) | A (≥70% compound remaining at timepoint) | A (≥70% compound remaining at timepoint) | A (≥70% compound remaining at timepoint) | – | – | – | C=CC(=O)N1CCN(c2cc(C(=O)Nc3cccc(O)c3)nc(OC[C@@H]3CCCN3C)n2)CC1 [Example 04, N-(3-hydroxyphenyl)-2-[[(2S)-1-methylpyrrolidin-2-yl]methoxy]-6-(4-prop-2-enoylpiperazin-1-yl)pyrimidine-4-carboxamide] | – |
| A (≥70% compound remaining at timepoint) | A (≥70% compound remaining at timepoint) | A (≥70% compound remaining at timepoint) | A (≥70% compound remaining at timepoint) | – | – | – | C=CC(=O)N1CCN(c2cc(C(=O)Nc3cccc4[nH]ncc34)nc(OC[C@@H]3CCCN3C)n2)CC1 [Example 22, N-(1H-indazol-4-yl)-2-[[(2S)-1-methylpyrrolidin-2-yl]methoxy]-6-(4-prop-2-enoylpiperazin-1-yl)pyrimidine-4-carboxamide] | – |
| C (≤30% compound remaining at timepoint) | C (≤30% compound remaining at timepoint) | A (≥70% compound remaining at timepoint) | A (≥70% compound remaining at timepoint) | C (≤30% compound remaining at timepoint) | A (≥70% compound remaining at timepoint) | A (≥70% compound remaining at timepoint) | C=CC(=O)N1CCN(c2cc(C(=O)Nc3cc(O)cc4ccccc34)nc(OC[C@@H]3CCCN3C)n2)C[C@@H]1CC#N [Example 08, 6-[(3S)-3-(cyanomethyl)-4-prop-2-enoyl-piperazin-1-yl]-N-(3-hydroxy-1-naphthyl)-2-[[(2S)-1-methylpyrrolidin-2-yl]methoxy]pyrimidine-4-carboxamide] | B (30%-70% compound remaining at timepoint) |
| A (≥70% compound remaining at timepoint) | – | A (≥70% compound remaining at timepoint) | – | A (≥70% compound remaining at timepoint) | A (≥70% compound remaining at timepoint) | A (≥70% compound remaining at timepoint) | C=CC(=O)N1C[C@@H]2C[C@H]1CN2c1cc(C(=O)Nc2cc(O)cc3ccccc23)nc(OC[C@@H]2CCCN2C)n1 [Example 23, N-(3-hydroxy-1-naphthyl)-2-[[(2S)-1-methylpyrrolidin-2-yl]methoxy]-6-[(1S,4S)-2-prop-2-enoyl-2,5-diazabicyclo[2.2.1]heptan-5-yl]pyrimidine-4-carboxamide] | A (≥70% compound remaining at timepoint) |
| A (≥70% compound remaining at timepoint) | A (≥70% compound remaining at timepoint) | A (≥70% compound remaining at timepoint) | A (≥70% compound remaining at timepoint) | – | – | – | C=CC(=O)N1CCN(c2cc(C(=O)Nc3ccccc3)nc(OC[C@@H]3CCCN3C)n2)CC1 [Example 18, 2-[[(2S)-1-methylpyrrolidin-2-yl]methoxy]-N-phenyl-6-(4-prop-2-enoylpiperazin-1-yl)pyrimidine-4-carboxamide] | – |
